Columns and labels:
[1] = tested on: primary human islets; experiment: Glucose-stimulated insulin secretion in primary human islets; format: cell-based; conditions: 200 uM, 24 hour pre-incubation, vs vehicle and 20 uM
Experimental: LG=2.8 mM glucose, HG=16.7 mM glucose, KCl=16.7 mM glucose+30 mM KCl. *p<0.05.
Since beta cell failure is a major underlying cause of both GDM and T2D, the effect of increased CMPF on beta cell function was investigated both in vitro and in vivo. Using physiological concentrations of CMPF (20 uM and 200 uM, as observed in our NGT-pregnant and GDM-pregnant samples respectively (FIG. 2)), as well as a vehicle control (EtOH), its effect was studied on glucose-stimulated insulin secretion (GSIS) and insulin secretion in response to direct depolarization using the secretagogue KCl in an immortalized murine beta cell line (MIN6), as well as primary isolated human and murine islets (FIG. 3A). […] Therefore, high physiologically relevant levels of CMPF impair GSIS.

[2] = tested on: murine islets; experiment: Total insulin content in murine islets; format: cell-based; conditions: 200 uM
Experimental: Murine islets were treated for 24 hrs with vehicle control (0 CMPF), 20 uM (20 CMPF), or 200 uM (200 CMPF) CMPF, and assessed for total insulin content and mRNA expression. […] Decreased expression of insulin processing enzymes PCSK1, 2 and CpE (F), (G), (H) indicate that CMPF may also impair post-translational insulin processing. Finally, CMPF causes decreased expression of the beta cell glucose transporter GLUT2, and GCK, the rate-limiting enzyme critical for glucose metabolism (I) and (J), perhaps impairing glucose sensing and metabolism. In all cases n=4, *P<0.05.
(§1) In the absence of apoptosis and necrosis, CMPF must be impairing GSIS by causing beta cell dysfunction. First, the effect of CMPF treatment on insulin biosynthesis was investigated to determine if insulin is available to be released upon stimulation. MIN6, murine and human islets were treated with vehicle control, 20 uM and 200 uM CMPF for 4 hrs (MIN6) or 24 hrs (islets), and total insulin content measured. […] Lower total insulin content may be due to either defective insulin processing from proinsulin to mature insulin, or insufficient insulin transcription. To determine the mechanism through which CMPF is reducing total insulin content, quantitative PCR (qPCR) was performed on RNA that was isolated from murine islets treated with either vehicle control or 200 uM CMPF for 24 hrs.

[3] = tested on: human islets; experiment: Total insulin content in human islets; format: cell-based; conditions: 200 uM, 24 hrs, vs vehicle
Experimental: as §1

[4] = tested on: islets; experiment: Insulin and proinsulin in the media of 24 hr treated islets; format: cell-based, mouse; conditions: 24 hr treatment
Experimental: A) Proinsulin in the media of 24 hr treated islets (n=4/group). B) Mitochondrial membrane potential (MMP) following acute addition of vehicle control or 200 μM of CMPF (N=3/group). C) ROS levels in 4- and 24-hour treated mouse islets with representative images (N=10-15 islets/mouse from 4 mice/group). D) Expression of antioxidant genes Cat and (e) Ucp2 (n=4/group). F) ROS accumulation in 24 hr-treated islets treated with 500 μM NAC (n=10 islets/mouse from 4 mice/group). G) GSIS and (h) total insulin content from 24 hr-treated islets co-treated with 500 μM NAC (n=4/group). Western blots showing (i) Ser9 phosphorylation of GSK3β, (j) Ser473 phosphorylation of AKT (n=3/group). K) Immunofluorescent staining showing nuclear translocation of FOXO1 and (l) PDX1 with CMPF and NAC treatment (n=3-6). Quantification of nuclear percentage of (m) FOXO1 and (n) PDX1 based on immunofluorescent staining with CMPF and NAC treatment. […]
Lower total insulin content may be due to beta-cell exhaustion caused by over-stimulation and/or defective insulin production. To determine the mechanism through which CMPF diminishes insulin content, we measured insulin in the media following 24 hr treatment. […] To first determine if CMPF is metabolized by beta-cells, we measured changes in mitochondrial membrane potential (MMP) in mouse islets acutely treated with CMPF. […]

[5] = tested on: mouse islets; experiment: Western blotting of treated mouse islets; format: cell-based
Experimental: CMPF-treated and control mouse islets were lysed in RIPA buffer (Cell Signaling, Danvers, Mass., USA) containing protease inhibitor cocktail (Roche, Mississauga, ON, Canada). Lysates were spun at 12,000 rpm and supernatant was loaded onto a 4-15% SDS-PAGE gradient gel (BioRad, Mississauga, ON, Canada) and transferred onto PVDF membrane using a Turbo Blotter (BioRad). The membrane was probed with the corresponding antibodies, and imaged using Kodak Imager 4000pro (Carestream, Rochester, N.Y., USA).
To determine the mechanism through which CMPF decreases insulin biosynthesis we examined its effect on these key regulators. Under normal conditions, AKT and GSK3β have reciprocal activities. Active pAKT phosphorylates and inactivates GSK3β, preventing phosphorylation of downstream targets (Humphrey et al., 2010). […] FOXO1 is normally sequestered in the cytosol due to phosphorylation by AKT (Kitamura et al., 2005). […] Altered activity of these transcription factors is further confirmed by decreased mRNA levels of key target genes including Inst, transcription factors Pdx1 and Mafa, proinsulin processing enzymes CpE, Pc1 and Pc2, and the glucose transporter Glut2 (Boucher et al., 2006; Kaneto et al. 2008) (FIG. 18a).

[6] = tested on: islets; experiment: GSIS with CMPF conjugated to fatty acid-free BSA; format: cell-based; conditions: conjugated for 6 hours prior to addition of islets, N=3
Experimental: CMPF was conjugated to fatty acid free BSA for 6 hours prior to addition of islets for green and blue bars. The same protocol used for the conjugation of oleate was used. Black and white bars indicate addition of CMPF with 0.1% BSA in the media without pre-conjugation. N=3. *P<0.05.

For CCCc1oc(CCC(=O)O)c(C(=O)O)c1C [CMPF, 3-carboxy-4-methyl-5-propyl-2-furanpropanoic acid], the GSIS [1] was “impairs GSIS”, the “total DNA” value [2] was “absence of changes” and the total insulin content ([2]; 24 hrs, vs vehicle) was “significantly reduced”. For the same molecule, the total insulin content [3] was “significantly reduced”, the “accumulation of total insulin in the media” value [4] was “no difference” and the “proinsulin in the media” value [4] was “substantially more proinsulin”. The “AKT (Ser473) phosphorylation” value ([5]; 24 hr treatment) was “significantly impaired”, the “GSK3β (Ser9) phosphorylation” value ([5]; 24 hr treatment) was “significantly impaired” and the “absolute protein levels of PDX1 and FOXO1” value ([5]; CMPF-treated islets) was “not significantly different”. The “effect of conjugation to fatty acid-free BSA on CMPF-impaired GSIS” value [6] was “no effect”.
